Reference: ChEMBL document CHEMBL3588828, “A Selective, Cell-Permeable Nonphosphorylated Bicyclic Peptidyl Inhibitor against Peptidyl-Prolyl Isomerase Pin1” (J Med Chem, 2015)
Calls of active or inactive are those of the source. No cut-off for these calls is given here.

Experiments:
[1] = biological target: T1, Peptidyl-prolyl cis-trans isomerase NIMA-interacting 1 (Homo sapiens, UniProt Q13526, S16A/Y23A); test: Binding affinity to N-terminal MBP fused and Texas-red-labeled full-length human Pin1 S16A/Y23A mutant expressed in Escherichia coli assessed as increase in fluorescence anisotropy by spectrofluorimetry
Serum [2] = test: Drug level in 25% human serum treated with at 5 uM peptide-1 assessed as compound formation incubated at 37 degC by MALDI-TOF mass spectrometry; format: ADME, cell-free
HeLa [3] = test: Drug uptake in human HeLa cells assessed as mean fluorescence intensity at 5 uM using FITC-labeled compound incubated for 2 hrs by flow cytometry (reference value: 86); format: ADME, cell-based
HeLa [4] = test: Antiproliferative activity against human HeLa cells assessed as reduction in cell growth incubated for 72 hrs by MTT assay; format: functional, cell-based
HeLa [5] = test: Growth inhibition of human HeLa cells at 5 uM incubated for 3 days by MTT assay; format: functional
[6] = biological target: Peptidyl-prolyl cis-trans isomerase NIMA-interacting 1 (Homo sapiens) (UniProt Q13526); test: Inhibition of Pin1 in human HeLa cells assessed as increase in PML protein levels at 0.2 to 5 uM incubated for 2 hrs by Western blotting method relative to untreated control; format: cell-based
[7] = system: Peptidyl-prolyl cis-trans isomerase NIMA-interacting 1 (Homo sapiens), Q13526 [S16A,Y23A]; test: (§1) Inhibition of FITC-labeled peptide-1 binding to N-terminal MBP fused and Texas-red-labeled full-length human Pin1 S16A/Y23A mutant expressed in Escherichia coli assessed as increase in fluorescence anisotropy by spectrofluorimetry
[8] = biological target: T1, Peptidyl-prolyl cis-trans isomerase NIMA-interacting 1; test: as §1
[9] = system: Peptidyl-prolyl cis-trans isomerase NIMA-interacting 1 (Homo sapiens), Q13526 [S16A,Y23A]; test: (§2) Inhibition of N-terminal MBP fused and Texas-red-labeled full-length human Pin1 S16A/Y23A mutant expressed in Escherichia coli pre-incubated for 10 mins before addition of Suc-Ala-Glu-Pro-Phe-pNA substrate in presence of alpha-chymotrypsin by UV/Vis spectrophotometry
[10] = biological target: T1, Peptidyl-prolyl cis-trans isomerase NIMA-interacting 1; test: as §2
Albumin = Albumin (Bos taurus, UniProt P02769); test: Binding affinity to bovine serum albumin; format: ADME
[11] = biological target: T2, Tyrosine-protein phosphatase non-receptor type 1 (Homo sapiens) (UniProt P18031); test: Binding affinity to PTP1B (unknown origin)
T2 sequence (whole entry): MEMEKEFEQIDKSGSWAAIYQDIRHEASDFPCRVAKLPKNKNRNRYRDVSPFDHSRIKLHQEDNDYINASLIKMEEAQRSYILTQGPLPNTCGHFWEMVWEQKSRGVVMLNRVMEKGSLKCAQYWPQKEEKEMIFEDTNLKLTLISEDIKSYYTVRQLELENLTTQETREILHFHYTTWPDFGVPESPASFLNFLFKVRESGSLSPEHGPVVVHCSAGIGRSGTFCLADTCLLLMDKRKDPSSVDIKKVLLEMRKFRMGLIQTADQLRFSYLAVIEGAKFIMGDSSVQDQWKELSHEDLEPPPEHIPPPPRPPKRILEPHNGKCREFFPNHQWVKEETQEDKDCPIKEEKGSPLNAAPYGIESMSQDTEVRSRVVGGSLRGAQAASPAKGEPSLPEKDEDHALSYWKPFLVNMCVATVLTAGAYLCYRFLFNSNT

[12] = biological target: Tyrosine-protein phosphatase non-receptor type 6 (Homo sapiens) (UniProt P29350); test: Binding affinity to SHP1 (unknown origin)
[13] = biological target: T3, Tyrosine-protein phosphatase non-receptor type 11 (Homo sapiens) (UniProt Q06124); test: Binding affinity to SHP2 (unknown origin)
T3 sequence (whole entry): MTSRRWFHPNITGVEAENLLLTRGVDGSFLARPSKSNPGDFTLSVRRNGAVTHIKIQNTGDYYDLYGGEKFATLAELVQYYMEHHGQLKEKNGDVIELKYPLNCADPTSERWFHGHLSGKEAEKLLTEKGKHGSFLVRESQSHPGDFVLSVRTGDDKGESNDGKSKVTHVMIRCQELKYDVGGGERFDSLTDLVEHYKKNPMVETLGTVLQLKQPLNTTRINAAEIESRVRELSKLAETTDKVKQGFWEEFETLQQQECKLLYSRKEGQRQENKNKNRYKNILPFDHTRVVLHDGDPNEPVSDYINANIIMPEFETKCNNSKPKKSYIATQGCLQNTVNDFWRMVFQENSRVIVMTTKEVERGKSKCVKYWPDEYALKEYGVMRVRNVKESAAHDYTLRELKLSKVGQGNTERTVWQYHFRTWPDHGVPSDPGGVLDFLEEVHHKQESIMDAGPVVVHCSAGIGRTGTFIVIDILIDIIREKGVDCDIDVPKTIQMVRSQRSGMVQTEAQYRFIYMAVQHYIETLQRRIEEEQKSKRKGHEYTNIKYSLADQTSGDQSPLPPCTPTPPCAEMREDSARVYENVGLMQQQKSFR

[14] = biological target: Growth factor receptor-bound protein 2 (Homo sapiens) (UniProt P62993); test: Binding affinity to Grb2 SH2 domain (unknown origin)
[15] = biological target: GTPase KRas (Homo sapiens) (UniProt P01116); test: Binding affinity to K-Ras (unknown origin)
[16] = biological target: Tumor necrosis factor (Homo sapiens) (UniProt P01375); test: Binding affinity to TNFalpha (unknown origin)
[17] = biological target: T4, Peptidyl-prolyl cis-trans isomerase NIMA-interacting 4 (Homo sapiens, UniProt Q9Y237); test: Inhibition of Pin4 (unknown origin) at 5 uM pre-incubated for 10 mins before addition of Suc-Ala-Glu-Pro-Phe-pNA substrate in presence of alpha-chymotrypsin by UV/Vis spectrophotometry
[18] = biological target: T4, Peptidyl-prolyl cis-trans isomerase NIMA-interacting 4; test: Inhibition of Pin4 (unknown origin) pre-incubated for 10 mins before addition of Suc-Ala-Glu-Pro-Phe-pNA substrate in presence of alpha-chymotrypsin by UV/Vis spectrophotometry
[19] = biological target: Peptidyl-prolyl cis-trans isomerase A (Homo sapiens) (UniProt P62937); test: Inhibition of cyclophilin A (unknown origin) up to 5 uM pre-incubated for 10 mins before addition of Suc-Ala-Glu-Pro-Phe-pNA substrate in presence of alpha-chymotrypsin by UV/Vis spectrophotometry
[20] = Stability in 25% human serum assessed as intact parent compound level at 5 uM after 6 hrs incubated at 37 degC by reversed-phase HPLC method; format: ADME, cell-free; conditions: read-out: Stability
[21] = biological target: Peptidyl-prolyl cis-trans isomerase NIMA-interacting 1 (Homo sapiens) (UniProt Q13526); test: Inhibition of Pin1 in human HeLa cells assessed as increase in PML protein levels at 0.2 uM incubated for 2 hrs by Western blotting method relative to untreated control; format: cell-based
[22] = biological target: Peptidyl-prolyl cis-trans isomerase NIMA-interacting 1 (Homo sapiens) (UniProt Q13526); test: Inhibition of Pin1 in human HeLa cells assessed as increase in PML protein levels at 1 uM incubated for 2 hrs by Western blotting method relative to untreated control; format: cell-based
FKBP1A = test: Inhibition of FKBP12 (unknown origin) up to 5 uM pre-incubated for 10 mins before addition of Suc-Ala-Glu-Pro-Phe-pNA substrate in presence of alpha-chymotrypsin by UV/Vis spectrophotometry; conditions: Homo sapiens
[23] = Stability in 25% human serum assessed as compound degradation at 5 uM after 3 hrs incubated at 37 degC by reversed-phase HPLC method; format: ADME, cell-free; conditions: read-out: Drug degradation
Serum [24] = test: Drug metabolism in 25% human serum assessed as compound 2 formation at 5 uM incubated at 37 degC by MALDI-TOF mass spectrometry; format: ADME, cell-free
[25] = system: Peptidyl-prolyl cis-trans isomerase NIMA-interacting 1 (Homo sapiens), Q13526 [S16A,Y23A]; test: Binding affinity to N-terminal MBP fused and Texas-red-labeled full-length human Pin1 S16A/Y23A mutant expressed in Escherichia coli assessed as increase in fluorescence anisotropy at 5 uM by spectrofluorimetry
[26] = Homo sapiens, HeLa, 72 h, read-out: IC50

T4 sequence (Q9Y237 whole entry): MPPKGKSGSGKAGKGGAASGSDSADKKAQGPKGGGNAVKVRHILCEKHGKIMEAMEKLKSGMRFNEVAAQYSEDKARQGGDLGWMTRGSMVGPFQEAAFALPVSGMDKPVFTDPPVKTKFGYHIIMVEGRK
Peptidyl-prolyl cis-trans isomerase A (Homo sapiens), sequence (P62937 whole entry, looked up): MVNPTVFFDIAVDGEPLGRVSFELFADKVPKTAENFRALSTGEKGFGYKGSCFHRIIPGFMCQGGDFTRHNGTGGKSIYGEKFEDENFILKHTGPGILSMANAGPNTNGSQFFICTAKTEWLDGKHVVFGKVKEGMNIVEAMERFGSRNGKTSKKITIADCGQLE
Tumor necrosis factor (Homo sapiens), sequence (P01375 whole entry): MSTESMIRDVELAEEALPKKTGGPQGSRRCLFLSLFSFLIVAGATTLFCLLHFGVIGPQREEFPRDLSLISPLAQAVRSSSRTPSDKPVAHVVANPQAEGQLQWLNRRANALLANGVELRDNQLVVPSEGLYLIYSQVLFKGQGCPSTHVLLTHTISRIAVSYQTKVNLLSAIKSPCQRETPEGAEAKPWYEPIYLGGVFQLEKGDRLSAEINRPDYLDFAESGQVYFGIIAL
GTPase KRas (Homo sapiens), sequence (P01116 whole entry, looked up): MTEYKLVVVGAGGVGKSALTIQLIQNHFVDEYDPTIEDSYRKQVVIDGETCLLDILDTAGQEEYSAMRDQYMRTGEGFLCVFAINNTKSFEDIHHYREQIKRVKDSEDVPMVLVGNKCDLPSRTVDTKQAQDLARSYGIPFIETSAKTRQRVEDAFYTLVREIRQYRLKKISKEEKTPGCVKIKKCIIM
Tyrosine-protein phosphatase non-receptor type 6 (Homo sapiens), sequence (P29350 whole entry): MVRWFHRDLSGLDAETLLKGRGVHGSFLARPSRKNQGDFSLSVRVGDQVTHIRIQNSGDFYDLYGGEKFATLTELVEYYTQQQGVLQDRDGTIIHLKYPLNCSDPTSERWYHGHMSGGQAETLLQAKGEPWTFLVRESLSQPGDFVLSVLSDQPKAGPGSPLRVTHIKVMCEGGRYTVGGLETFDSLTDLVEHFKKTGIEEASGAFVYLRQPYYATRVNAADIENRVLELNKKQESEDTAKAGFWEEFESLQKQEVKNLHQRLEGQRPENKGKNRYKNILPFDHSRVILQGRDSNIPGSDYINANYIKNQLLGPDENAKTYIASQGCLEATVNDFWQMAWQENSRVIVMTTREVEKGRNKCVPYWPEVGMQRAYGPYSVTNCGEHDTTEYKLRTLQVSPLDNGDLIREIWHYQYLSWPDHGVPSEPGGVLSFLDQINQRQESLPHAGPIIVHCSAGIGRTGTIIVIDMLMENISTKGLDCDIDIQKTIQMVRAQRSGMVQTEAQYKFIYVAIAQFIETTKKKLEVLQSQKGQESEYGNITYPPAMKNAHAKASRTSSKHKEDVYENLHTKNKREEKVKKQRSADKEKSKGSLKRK
Growth factor receptor-bound protein 2 (Homo sapiens), sequence (P62993 whole entry, looked up, the tested form may be a part): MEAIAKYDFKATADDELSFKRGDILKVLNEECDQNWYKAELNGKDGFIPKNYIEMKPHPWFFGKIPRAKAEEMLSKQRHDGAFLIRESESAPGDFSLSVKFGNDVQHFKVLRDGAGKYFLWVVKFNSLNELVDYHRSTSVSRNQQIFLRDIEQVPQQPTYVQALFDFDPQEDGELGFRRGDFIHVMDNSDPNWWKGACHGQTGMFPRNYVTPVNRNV
Albumin, sequence (P02769 whole entry): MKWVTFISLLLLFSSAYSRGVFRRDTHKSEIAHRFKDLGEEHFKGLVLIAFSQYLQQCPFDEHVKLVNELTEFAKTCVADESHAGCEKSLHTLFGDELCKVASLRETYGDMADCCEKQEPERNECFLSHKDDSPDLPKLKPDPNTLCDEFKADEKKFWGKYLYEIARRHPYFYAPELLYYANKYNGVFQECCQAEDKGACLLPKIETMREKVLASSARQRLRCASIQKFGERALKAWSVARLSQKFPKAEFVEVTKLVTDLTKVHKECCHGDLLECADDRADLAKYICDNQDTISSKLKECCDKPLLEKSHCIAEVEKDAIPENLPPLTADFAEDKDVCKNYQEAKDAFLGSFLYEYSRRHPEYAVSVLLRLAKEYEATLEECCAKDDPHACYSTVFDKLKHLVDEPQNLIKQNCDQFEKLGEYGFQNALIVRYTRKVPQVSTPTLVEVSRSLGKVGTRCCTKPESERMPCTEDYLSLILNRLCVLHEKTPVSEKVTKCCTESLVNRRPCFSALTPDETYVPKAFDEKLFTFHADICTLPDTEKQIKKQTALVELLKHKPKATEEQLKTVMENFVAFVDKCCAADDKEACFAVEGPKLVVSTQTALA

C[C@@H]1NC(=O)[C@H](CCCNC(=N)N)NC(=O)[C@H](Cc2ccc3ccccc3c2)NC(=O)[C@@H]2CCCCN2C(=O)[C@@H]([C@H](C)O)NC(=O)CN(C)C(=O)[C@@H](C)NC(=O)c2cc3cc(c2)C(=O)NC[C@H](NC(=O)[C@@H](C)NC1=O)C(=O)N[C@@H](Cc1ccccc1)C(=O)N[C@@H](Cc1ccc2ccccc2c1)C(=O)N[C@@H](CCCNC(=N)N)C(=O)N[C@@H](CCCNC(=N)N)C(=O)N[C@@H](CCCNC(=N)N)C(=O)N[C@@H](CCCNC(=N)N)C(=O)N[C@H](C(=O)N[C@@H](CCCCN)C(=O)O)CNC3=O
Kd ([1]; read-out: Kd): 620 nM
Drug metabolism (Serum [2]): metabolite_detected

C[C@H](OP(=O)(O)O)[C@H]1NC(=O)CN(C)C(=O)[C@@H](C)NC(=O)[C@H](CCCCN)NC(=O)[C@H](Cc2ccc(O)cc2)NC(=O)[C@H](Cc2ccc3ccccc3c2)NC(=O)[C@H]2CCCCN2C1=O
Kd ([1]; read-out: Kd): 240 nM
Flu intensity (HeLa [3]): 193
IC50 (HeLa [4]; hela): Not Active
growth inhibition (GI) (HeLa [5]): inactive

C[C@@H]1NC(=O)[C@H](CCCNC(=N)N)NC(=O)[C@H](Cc2ccc3ccccc3c2)NC(=O)[C@@H](C)NC(=O)[C@@H]([C@H](C)O)NC(=O)CN(C)C(=O)[C@@H](C)NC(=O)c2cc3cc(c2)C(=O)NC[C@H](NC(=O)[C@@H](C)NC1=O)C(=O)N[C@@H](Cc1ccccc1)C(=O)N[C@@H](Cc1ccc2ccccc2c1)C(=O)N[C@@H](CCCNC(=N)N)C(=O)N[C@@H](CCCNC(=N)N)C(=O)N[C@@H](CCCNC(=N)N)C(=O)N[C@@H](CCCNC(=N)N)C(=O)N[C@H](C(=O)N[C@@H](CCCCN)C(=O)O)CNC3=O
Kd [1]: Not Active
Flu intensity (HeLa [3]): 8730
IC50 (HeLa [4]; hela): Not Active
growth inhibition (GI) (HeLa [5]): inactive
inhibition [6]: inactive

C[C@@H]1NC(=O)[C@H](CCCNC(=N)N)NC(=O)[C@H](Cc2ccc3ccccc3c2)NC(=O)[C@H]2CCCCN2C(=O)[C@@H]([C@H](C)O)NC(=O)[C@H](Cc2ccc(F)cc2)NC(=O)[C@@H](Cc2ccc(F)cc2)NC(=O)c2cc3cc(c2)C(=O)NC[C@H](NC(=O)[C@@H](C)NC1=O)C(=O)N[C@@H](Cc1ccccc1)C(=O)N[C@@H](Cc1ccc2ccccc2c1)C(=O)N[C@@H](CCCNC(=N)N)C(=O)N[C@@H](CCCNC(=N)N)C(=O)N[C@@H](CCCNC(=N)N)C(=O)N[C@@H](CCCNC(=N)N)C(=O)N[C@H](C(=O)N[C@@H](CCCCN)C(=O)O)CNC3=O
Kd ([1]; read-out: Kd): 120 nM
inhibition [7]: Dose-dependent effect
IC50 [8]: 190 nM
inhibition [9]: Dose-dependent effect
IC50 [10]: 170 nM
Kd (Albumin): 20000 nM
Activity [11]: inactive
Activity [12]: inactive
Activity [13]: inactive
Activity [14]: inactive
Activity [15]: inactive
Activity [16]: inactive
inhibition [17]: 15%
IC50 [18]: 34000 nM
inhibition [19]: inactive
remaining at 6 h, 5 µM [20]: 97%
Flu intensity (HeLa [3]): 8320
IC50 (HeLa [4]; [26]): 1000 nM
inhibition of growth at 5 µM (HeLa [5]; 72 h, read-out: GI): > 60%
fold change (FC) [21]: 1.8
fold change (FC) [22]: 3.3
inhibition (FKBP1A): inactive

C[C@@H]1NC(=O)[C@H](CCCNC(=N)N)NC(=O)[C@H](Cc2ccc3ccccc3c2)NC(=O)[C@@H]2CCCCN2C(=O)[C@@H]([C@H](C)OP(=O)(O)O)NC(=O)CN(C)C(=O)[C@@H](C)NC(=O)c2cc3cc(c2)C(=O)NC[C@H](NC(=O)[C@@H](C)NC1=O)C(=O)N[C@@H](Cc1ccccc1)C(=O)N[C@@H](Cc1ccc2ccccc2c1)C(=O)N[C@@H](CCCNC(=N)N)C(=O)N[C@@H](CCCNC(=N)N)C(=O)N[C@@H](CCCNC(=N)N)C(=O)N[C@@H](CCCNC(=N)N)C(=O)N[C@H](C(=O)N[C@@H](CCCCN)C(=O)O)CNC3=O
Kd ([1]; read-out: Kd): 72 nM
metabolised at 3 h, 5 µM [23]: 50%
Drug metabolism (Serum [24]): metabolite_detected
Flu intensity (HeLa [3]): 2040
IC50 (HeLa [4]; [26]): 2500 nM

CC[C@H](C)[C@@H]1NC(=O)[C@H](Cc2ccccc2)N(C)C(=O)c2cc3cc(c2)C(=O)NC[C@H](NC(=O)[C@@H](C)NC(=O)[C@H](C)NC(=O)[C@H](CCCNC(=N)N)NC(=O)[C@H](Cc2ccc4ccccc4c2)NC(=O)[C@H]2CCCCN2C(=O)[C@@H](CCC(=O)O)NC1=O)C(=O)N[C@@H](Cc1ccccc1)C(=O)N[C@@H](Cc1ccc2ccccc2c1)C(=O)N[C@@H](CCCNC(=N)N)C(=O)N[C@@H](CCCNC(=N)N)C(=O)N[C@@H](CCCNC(=N)N)C(=O)N[C@@H](CCCNC(=N)N)C(=O)N[C@H](C(=O)N[C@@H](CCCCN)C(=O)O)CNC3=O
Activity [25]: > 50%
Kd ([1]; read-out: Kd): 1250 nM
